# Where a SMILES comes first, the peptide text is derived from it. [ ]: non-standard residue; d: D form. pGlu = O=C1CC[C@@H](C(=O)O)N1
# Tests used:
# infant domestic rabbits = test: Inducing super-ovulation in infant domestic rabbits; type: in vivo, rabbit; conditions: 5 μg twice daily 3 days i.p., 50 μg on 4th day, after 26 hours; 42-day old rabbits
# Method: 20 42-day old rabbit whelps of the white pearl variety reared under large scale farming conditions were administered twice daily for three days 5 μg of D-Phe^6, Gln^8 -GnRH analogue intraperitoneally. Then the animals were divided into two groups and the one half of them was treated with 50 μg of active ingredient on the 4th day while the other half was killed with vapour of ether before treatment began. Developed follicles of this group were counted and used as control in determining the effect of the 50 μg dose. From the group kept alive, two animals were selected and through laparoscope probing their ovulation process was monitored for 10 hours while the animals were kept under narcosis (abdominal cavity was mirrored).
# red fox males = test: Inducing spermiogenesis of red fox in seasonal oligospermia; type: in vivo, Vulpes vulpes
# Source text: We have attempted to induce spermiogenesis of red fox males kept in Zoo and being in seasonal oligospermia with the aim that pure bred silver and blue foxes kept under farming scale conditions might be inseminated for the production of high-quality hybrid furs. […] Between unoestrus of the various sub-species is a difference of several months (red fox: January; blue fox: April and May). Results of the test were compared to population being in seasonal unoestrus where the average quantity of ejaculate was 2 ml, density 3 and motility 50-60%. This was taken as physiological value. During the test 5 sexually mature red fox males of 8 kg average weight were treated in the month of April, twice weekly with 1, 5, 10, and 50 μg doses of D-Phe^6, Gln^8 -GnRH analogue for seven weeks. On the third week following commencement of treatment sperm sample was taken. In the sample sperm count was 70% of the physiological value, and the number of degenerated sperm was over 40%. Most of the deformed forms were of young formation (plasma droplet of neck and middle part). […] (Males were separated from females, thus they had no opportunity to copulate.) Sperm samples were put into groups according to quality, then put into deep freeze. […] By ejaculating the 5 foxes once each, 56 doses of sperms suitable for fertilizing were obtained. In this way industrial technology service was provided for the production of quality furs.
# potential breeding sows = test: Inducing first successful rutting of female piglets in puberty; type: in vivo, pigs; conditions: treated group of 30
# Method: For our tests 60 potential breeding sows were selected from a stock of 200 sows available at the farm, on the basis of best growing vigor and feed conversion determined by industrial technology. These animals were put into 2 random groups of 30 each. Both groups, also according to industrial technology, were kept without food and drink for 24 hours. Animals at time of selection were injected intramuscularly with D-Phe^6, Gln^8 -GnRH analogue diluted in normal saline solution, then injections were repeated with 20 μg doses each from the same analogue twice with 24 hours intervals. The first rutting animal appeared 5 days after selection both in the untreated control group and in the treated group. Both groups were kept in the same sty, air-space, under similar conditions for 26 days as permitted in the industrial farming technology. During this time 3 animals (10%) from the untreated control and 21 animals (70%) from the treated stock rutted successfully. […] In this test series exact timing of ovulation was not amongst aims since only a few boars were available. For this reason, aim of the treatment was "the first successful rutting" within 26 days. 10% of the sows in farrow was a result acceptable to industrial farming average, thus the increase to 70% as a result of treatment means a very significant economic advantage.
# [1] = tested on: ovary of infant domestic cat; test: Stimulating function of ovary in infant domestic cat (D-Phe6,Gln8-GnRH); type: in vivo, Felis cattus domesticus; conditions: 100 μg i.m. every second day, 4 times; 45 days old kittens
# Method: 5 kittens each weighing 0.3 kg and being 45 days old were treated with D-Phe^6, Gln^8 -GnRH analogue every second day, altogether 4 times, using 100 μg each of the active ingredient. It was intramuscularly administered after dilution in normal saline solution. Following treatment, ovaries of both sides were removed from the animals under narcosis and visual examination took place. Thereafter the ovaries were fixed in formalin, and then hystological test was carried out. […] Under incrustation developing follicles were found, well definable from the bright, butter-coloured ovary. Some of the follicles were of Graf-follicle size.
smiles,measurement,setting,value
"CC(C)C[C@H](NC(=O)[C@@H](Cc1ccccc1)NC(=O)[C@H](Cc1ccc(O)cc1)NC(=O)[C@H](CO)NC(=O)[C@H](Cc1c[nH]c2ccccc12)NC(=O)[C@H](Cc1c[nH]cn1)NC(=O)[C@@H]1CCC(=O)N1)C(=O)N[C@@H](CCC(N)=O)C(=O)N1CCC[C@H]1C(=O)NCC(N)=O [D-Phe^6, Gln^8 -GnRH analogue, D-Phe^6, Gln^8 -GnRH] ([pGlu]HWSY[dF]LQPG-NH2)",ovulations and corpora haemorrhagica in each animal,infant domestic rabbits,30-40
same,doses of sperms suitable for fertilizing obtained,red fox males; 5 foxes ejaculated once each,56
same,density of ejaculate,red fox males; 7 weeks,3
same,sperm motility,"red fox males; 7 weeks, physiological value 50-60%",65%
same,motility after remelting,red fox males; after dilution and deep freeze at -196° C.,45%
same,degenerated sperm,red fox males; third week,over 40%
same,sperm count relative to the physiological value,"red fox males; third week, twice weekly 1, 5, 10 and 50 μg doses",70%
same,animals that rutted successfully within 26 days,"potential breeding sows; three i.m. injections at 24 h intervals, 20 μg",21 animals
same,share of animals that rutted successfully within 26 days,potential breeding sows; untreated control 10%,70%
same,corpora haemorrhagica on ovaries of both sides,[1],5-7

# Reference: patent US4753928A, “Process for obtaining sexual products from mammals suitable for natural or artificial fertilization” (INNOFINANCE Altalanos Innovacios Pengintezet, priority 1985, dated 1988)
